# Test results as given in patent US20250051324A1, “PARP INHIBITOR, PHARMACEUTICAL COMPOSITION COMPRISING SAME, AND USE THEREOF” (KEYTHERA (SUZHOU) BIO-PHARMACEUTICALS CO., LIMITED, priority 2021, published 2025).
# System: not listed separately
# Assay: Evaluation of pharmacokinetics in mice
# Details: male, ICR (CD1), mouse, plasma, po, 10 mg/kg
AUC(0-inf) [µg·h/mL],Cmax [ng/mL],half-life [h],Structure (SMILES)
2050,37500,38,"[2H]C([2H])([2H])NC(=O)c1ccc(N2CCN(Cc3cnc4c(C)c(C(F)(F)F)c(=O)[nH]c4c3)CC2)cn1 [Compound 95, N-(methyl-ds)-5-(4-((8-methyl-6-oxo-7-(trifluoromethyl)-5,6-dihydro-1,5-naphthyridin-3-yl)methyl)piperazin-1-yl)picolinamide]"

# System: MDA-MB-436 breast cancer cells
# Assay: Cell proliferation assay, MDA-MB-436
# Type: cell-based
# Details: Homo sapiens, MDA-MB-436, 168 h; proliferation, 7 days; read-out: MDA-MB-436 Cell IC50
# Procedure: Experimental Materials: MDA-MB-436 or UWB1.289 cell lines were purchased from Cobioer Biosciences Co. Ltd. (Nanjing, China). The STR identification results were a complete match, and mycoplasma testing was negative. MDA-MB-436 cells were cultured in DMEM complete medium containing 10% fetal bovine serum, 1% penicillin-streptomycin, 1% insulin, and 16 μg/mL glutathione; UWB1.289 cells were cultured in RMPI1640 complete medium containing 10% fetal bovine serum and 1% penicillin-streptomycin.
# 1. MDA-MB-436 or UWB1.289 cells were cultured in the aforementioned medium (culture conditions: 37° C., 5.0% CO2 in air) until they reached the logarithmic growth phase. The cells were then digested with trypsin containing 0.25% EDTA, centrifuged at 1000 rpm, and the supernatant was discarded. Cell culture medium was added, and the cell suspension was adjusted to 2×10^4/mL after counting. 135 μL of the cell suspension per well was taken and cultured in a 96-well cell culture plate for 16 hours (culture conditions: 37° C., 5.0% CO2 in air).
# 2. The test compounds, stored at a concentration of 10 mM, were diluted 2.5 times with DMSO and then serially diluted in a 1:3 gradient (9 gradients). The gradient-diluted samples were further diluted 40 times with serum-free medium, and 15 μL of each was added to the 96-well cell culture plate. The positive control group received serum-free medium containing the same concentration of DMSO, and the negative control group received medium without cells. The cells were then cultured for an additional 7 days.
# 3. After the culture period, the cell culture plate was placed at room temperature for 30 minutes. Then, 100 μL of CellCounting-Lite 2.0 reagent (Vazyme, #DD1101) was added to each well, mixed thoroughly, and incubated in the dark at room temperature for 10 minutes. The luminescence signal was read using a Synergy HTX multi-mode reader.
# (§1) 4. Data analysis was performed using GraphPad Prism 8.0 software. The inhibition rate (%) was calculated as 100*(average luminescence signal of the positive control group−luminescence signal of the compound)/(average luminescence signal of the positive control group−average luminescence signal of the negative control group). The IC50 value was obtained by plotting the logarithm of the compound concentration against the percentage inhibition rate.
row,Structure (SMILES),IC50 [nM]
1,"CCNC(=O)c1ccc(N2CCN(Cc3cnc4c(C)c(C(F)(F)F)c(=O)[nH]c4c3)CC2)cn1 [Compound 98, N-ethyl-5-(4-((8-methyl-6-oxo-7-(trifluoromethyl)-5,6-dihydro-1,5-naphthyridin-3-yl)methyl)piperazin-1-yl)picolinamide]",1.22
2,"CNC(=O)c1ccc(N2CCN(Cc3cnc4c(F)c(C)c(=O)[nH]c4c3)CC2)cn1 [Compound 103, 5-(4-((8-fluoro-7-methyl-6-oxo-5,6-dihydro-1,5-naphthyridin-3-yl)methyl)piperazin-1-yl)-N-methylpicolinamide]",3.76
3,"CNC(=O)c1ccc(C2=CCN(Cc3cnc4c(C)c(C(F)(F)F)c(=O)[nH]c4c3)CC2C)cn1 (stereo not shown) [Compound 80, N,3′-dimethyl-1′-((8-methyl-6-oxo-7-(trifluoromethyl)-5,6-dihydro-1,5-naphthyridin-3-yl)methyl)-1′,2′,3′,6′-tetrahydro-[3,4′-bipyridine]-6-carboxamide]",13.9
4,"CNC(=O)c1ccc(C2=C(C)CN(Cc3cnc4c(C)c(C(F)(F)F)c(=O)[nH]c4c3)CC2)cn1 [Compound 81, N,5′-dimethyl-1′-((8-methyl-6-oxo-7-(trifluoromethyl)-5,6-dihydro-1,5-naphthyridin-3-yl)methyl)-1′,2′,3′,6′-tetrahydro-[3,4′-bipyridine]-6-carboxamide]",13.2
5,"CNC(=O)c1ccc(C2=CCN(Cc3cnc4c(C)c(C(F)(F)F)c(=O)[nH]c4c3)CC2)nc1 [Compound 82, N-methyl-1′-((8-methyl-6-oxo-7-(trifluoromethyl)-5,6-dihydro-1,5-naphthyridin-3-yl)methyl)-1′,2′,3′,6′-tetrahydro-[2,4′-bipyridine]-5-carboxamide]",5.83
6,"CNC(=O)c1ccc(N2CCN(Cc3cnc4c(C)c(C(F)(F)F)c(=O)[nH]c4c3)C[C@H]2C#N)cn1 [Compound 86, (S)-5-(2-cyano-4-((8-methyl-6-oxo-7-(trifluoromethyl)-5,6-dihydro-1,5-naphthyridin-3-yl)methyl)piperazin-1-yl)-N-methylpicolinamide]",14.8
7,"[2H]C([2H])([2H])NC(=O)c1ccc(N2CCN(Cc3cnc4c(C)c(C(F)(F)F)c(=O)[nH]c4c3)CC2)cn1 [Compound 95, N-(methyl-ds)-5-(4-((8-methyl-6-oxo-7-(trifluoromethyl)-5,6-dihydro-1,5-naphthyridin-3-yl)methyl)piperazin-1-yl)picolinamide]",2.13
8,"CNC(=O)c1ccc(C2=CCN(Cc3cnc4c(C)c(C(F)F)c(=O)[nH]c4c3)CC2)cn1 [Compound 106, 1′-((7-(difluoromethyl)-8-methyl-6-oxo-5,6-dihydro-1,5-naphthyridin-3-yl)methyl)-N-methyl-1′,2′,3′,6′-tetrahydro-[3,4′-bipyridine]-6-carboxamide]",0.78
9,"CNC(=O)c1ccc(N2CCN(Cc3cnc4c(C)c(C(F)F)c(=O)[nH]c4c3)C[C@H]2C)cn1 [Compound 105, (R)-5-(4-((7-(difluoromethyl)-8-methyl-6-oxo-5,6-dihydro-1,5-naphthyridin-3-yl)methyl)-2-methylpiperazin-1-yl)-N-methylpicolinamide]",4.93

# More lines, now with the values ahead:
row,IC50 [nM],Structure (SMILES)
1,9.34,"Cc1c(C(F)(F)F)c(=O)[nH]c2cc(CN3CCN(c4ccc(C(=O)NCCO)nc4)CC3)cnc12 [Compound 96, N-(2-hydroxyethyl)-5-(4-((8-methyl-6-oxo-7-(trifluoromethyl)-5,6-dihydro-1,5-naphthyridin-3-yl)methyl)piperazin-1-yl)picolinamide]"
2,2.12,"Cc1c(C(F)(F)F)c(=O)[nH]c2cc(CN3CCN(c4ccc(C(=O)NCC(F)(F)F)nc4)CC3)cnc12 [Compound 97, 5-(4-((8-methyl-6-oxo-7-(trifluoromethyl)-5,6-dihydro-1,5-naphthyridin-3-yl)methyl)piperazin-1-yl)-N-(2,2,2-trifluoroethyl)picolinamide]"
3,8.99,"CNC(=O)c1ccc(N2CCN(Cc3cnc4c(C)c(C(F)(F)F)c(=O)[nH]c4c3F)CC2)cn1 [Compound 101, 5-(4-((4-fluoro-8-methyl-6-oxo-7-(trifluoromethyl)-5,6-dihydro-1,5-naphthyridin-3-yl)methyl)piperazin-1-yl)-N-methylpicolinamide]"
4,6.5,"CNC(=O)c1ccc(N2CCN(Cc3cnc4c(C)c(C(F)F)c(=O)[nH]c4c3)[C@H](C)C2)cn1 [Compound 104, (R)-5-(4-((7-(difluoromethyl)-8-methyl-6-oxo-5,6-dihydro-1,5-naphthyridin-3-yl)methyl)-3-methylpiperazin-1-yl)-N-methylpicolinamide]"
5,5.69,"CNC(=O)c1ccc(N2CCN(Cc3ccc4c(F)c(C)c(=O)[nH]c4c3)CC2)cn1 [Compound 94, 5-(4-((4-fluoro-3-methyl-2-oxo-1,2-dihydroquinolin-7-yl)methyl)piperazin-1-yl)-N-methylpicolinamide]"
6,14.5,"CNC(=O)c1ccc(N2CCN(Cc3cnc4c(C)c(C(F)(F)F)c(=O)[nH]c4c3)CC2CC#N)cn1 (stereo not shown) [Compound 73, 5-(2-(cyanomethyl)-4-((8-methyl-6-oxo-7-(trifluoromethyl)-5,6-dihydro-1,5-naphthyridin-3-yl)methyl)piperazin-1-yl)-N-methylpicolinamide]"

# Molecular target: PARP1 (Homo sapiens (Human), UniProt P09874)
# Sequence (P09874 whole entry): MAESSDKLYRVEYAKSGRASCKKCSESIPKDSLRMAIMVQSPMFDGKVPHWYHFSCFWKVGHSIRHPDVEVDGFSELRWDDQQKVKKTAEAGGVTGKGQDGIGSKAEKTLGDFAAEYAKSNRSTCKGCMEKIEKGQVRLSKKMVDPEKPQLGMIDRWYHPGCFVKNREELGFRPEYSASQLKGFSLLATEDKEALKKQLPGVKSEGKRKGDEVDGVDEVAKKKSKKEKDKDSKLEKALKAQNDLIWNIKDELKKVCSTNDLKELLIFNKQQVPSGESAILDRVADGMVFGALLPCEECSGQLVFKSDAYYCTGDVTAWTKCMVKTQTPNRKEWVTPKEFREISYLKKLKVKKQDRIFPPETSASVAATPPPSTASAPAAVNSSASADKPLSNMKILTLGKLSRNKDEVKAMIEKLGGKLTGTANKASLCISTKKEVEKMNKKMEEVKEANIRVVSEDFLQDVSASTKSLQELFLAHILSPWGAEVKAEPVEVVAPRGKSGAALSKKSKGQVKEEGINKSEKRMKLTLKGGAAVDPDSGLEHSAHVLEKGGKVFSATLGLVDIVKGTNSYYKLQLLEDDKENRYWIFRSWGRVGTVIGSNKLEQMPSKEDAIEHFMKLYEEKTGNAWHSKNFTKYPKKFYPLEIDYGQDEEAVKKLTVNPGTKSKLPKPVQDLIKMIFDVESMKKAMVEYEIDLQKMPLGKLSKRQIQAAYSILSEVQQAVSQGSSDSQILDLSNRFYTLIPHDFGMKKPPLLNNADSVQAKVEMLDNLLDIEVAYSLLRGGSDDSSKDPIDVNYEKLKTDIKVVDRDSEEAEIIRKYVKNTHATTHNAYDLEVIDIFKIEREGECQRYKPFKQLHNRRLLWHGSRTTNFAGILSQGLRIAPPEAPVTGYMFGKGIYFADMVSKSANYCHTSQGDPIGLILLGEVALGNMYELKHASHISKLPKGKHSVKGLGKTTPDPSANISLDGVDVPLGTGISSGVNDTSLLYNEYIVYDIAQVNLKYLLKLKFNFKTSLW
# Assay: PARP enzyme activity assay (PARP1 chemiluminescent assay kit)
# Type: biochemical
# Details: enzyme inhibitory activity, read-out: PARP-1 IC50
# Source text: Experimental Materials: The PARP1 assay kit was purchased from BPS Bioscience, USA, specifically the 384-well chemiluminescent assay kit (Catalog No.: #80551).
# Experimental Principle: PARP can catalyze the transfer of ADP-ribose residues from NAD+ to target substrates, thereby modifying proteins through ribosylation. This experiment measures PARP1 enzyme activity by detecting the poly(ADP-ribosylation) of histones by PARP1.
# Preparation of Reagents and Test Compounds: The 10× assay buffer included in the kit was diluted to 1× with distilled water. The test compound (stock concentration of 10 mM) was diluted to 10 μM with a DMSO solution and then serially diluted in a 1:3 ratio. The serially diluted compounds were further diluted 10-fold with the 1× assay buffer.
# Experimental Method: The procedure was carried out according to the kit's instructions:
# 1. The 5× histone mixture was diluted to 1× with PBS, and 25 μL was added to each well of a 384-well plate, incubating overnight at 4° C.
# 2. After incubation, 100 μL of PBST (0.05% Tween 20) was added to each well for washing, repeated three times. Then, 100 μL of blocking solution was added to each well and incubated at room temperature for 90 minutes.
# 3. After incubation, the wells were washed three times with PBST, and then 1.25 μL of 10× assay buffer, 1.25 μL of 10×PARP assay mixture, 2.5 μL of activation DNA (5×), and 7.5 μL of distilled water were added to each well.
# 4. […] The positive control group and the negative control group were added with 1× assay buffer containing the same concentration of DMSO.
# 5. Next, 10 μL of 2.5 ng/μL PARP1 enzyme was added to the test compound and positive control groups, while 10 μL of 1× assay buffer was added to the negative control group, and the mixture was incubated at room temperature for 60 minutes.
# 6. Streptavidin-HRP was diluted 1:50 with the blocking solution. After incubation, the plate was washed three times with PBST, and 25 μL of the diluted streptavidin-HRP solution was added to each well, incubating at room temperature for 30 minutes.
# 7. After incubation, the plate was washed three times with PBST, and 50 μL of the mixed substrate A and substrate B in equal volumes was added. The luminescence signal was immediately read on a Synergy HTX multi-mode reader.
# as §1, with “8.” for “4.”, “%=100*(average” for “(%) was calculated as 100*(average”
row,IC50 [nM],Structure (SMILES)
1,34.3,"CNC(=O)c1ccc(N2CCN(Cc3cnc4c(C)c(C(F)(F)F)c(=O)[nH]c4c3)C(CO)C2)cn1 (stereo not shown) [Compound 6, 5-(3-(hydroxymethyl)-4-((8-methyl-6-oxo-7-(trifluoromethyl)-5,6-dihydro-1,5-naphthyridin-3-yl)methyl)piperazin-1-yl)-N-methylpicolinamide]"
2,27.2,"CNC(=O)c1ccc(N2CCN(Cc3cnc4c(C)c(C(F)(F)F)c(=O)[nH]c4c3)C(CCO)C2)cn1 (stereo not shown) [Compound 5, 5-(3-(2-hydroxyethyl)-4-((8-methyl-6-oxo-7-(trifluoromethyl)-5,6-dihydro-1,5-naphthyridin-3-yl)methyl)piperazin-1-yl)-N-methylpicolinamide]"
3,2.25,"CNC(=O)c1ccc(N2CC3CCC(C2)N3Cc2cnc3c(C)c(C(F)(F)F)c(=O)[nH]c3c2)cn1 [Compound 12, N-methyl-5-(8-((8-methyl-6-oxo-7-(trifluoromethyl)-5,6-dihydro-1,5-naphthyridin-3-yl)methyl)-3,8-diazabicyclo[3.2.1]octan-3-yl)picolinamide]"
4,5.48,"Cc1c(C(F)(F)F)c(=O)[nH]c2cc(CN3CCN(c4ncc(C(F)(F)F)cn4)CC3)cnc12 [Compound 19, 4-methyl-3-(trifluoromethyl)-7-((4-(5-(trifluoromethyl)pyrimidin-2-yl)piperazin-1-yl)methyl)-1,5-naphthyridin-2(1H)-one]"
